Assay results from patent US8779156B2, “Analogues for the treatment or prevention of flavivirus infections” (Vertex Pharmaceuticals Incorporated, priority 2010, dated 2014).

How the values were obtained:
[1] = system: HCV (1b) replicon, Huh-ET cells; assay: Cell-based luciferase reporter HCV (1b) RNA replication assay; conditions: Hepatitis C virus; for EC50: 96 h, HCV 1b replicon, luciferase, 4 days incubation, read-out: EC50_1b; for IC50: sub-genomic replicon 1b cell line
From the text: Cell-Based Luciferase Reporter HCV (Ib) RNA Replication Assay Cell Culture
Replicon cell lines Huh-5.2 are derived from the Huh-7 hepatocarcinoma cell line are maintained in culture as generally described in Krieger, N; Lohmann, V; Bartenschlager, R. Enhancement of hepatitis C virus RNA replication by cell culture-adaptive mutations. J. Virol. 2001, 75, 4614-4624. The Huh-5.2 cells contain the highly cell culture-adapted replicon I389luc-ubi-neo/NS3-375.1 construct that carries, in addition to the neomycin gene, an integrated copy to the firefly luciferase gene (Krieger, N; Lohmann, V; Bartenschlager, R. Enhancement of hepatitis C virus RNA replication by cell culture-adaptive mutations. J. Virol. 2001, 75, 4614-4624). This cell line allows measurement of HCV RNA replication and translation by measuring luciferase activity. It has been previously shown that the luciferase activity tightly follows the replicon RNA level in these cells (Krieger, N; Lohmann, V; Bartenschlager, R. Enhancement of hepatitis C virus RNA replication by cell culture-adaptive mutations. J. Virol. 2001, 75, 4614-4624). The Huh-ET cell line has the same features as those mentioned for Huh-5.2 cell line, except that ET cells are more robust and contain an adaptative mutation in the HCV NS4B gene instead of NS5A. Both cell lines are maintained in cultures at a sub-confluent level (<85%) as the level of replicon RNA is highest in actively proliferating cells. The culture media used for cell passaging consist of DMEM (Gibco BRL Laboratories, Mississauga, ON, Canada) supplemented with 10% foetal bovine serum with 1% penicilin/streptomycin, 1% glutamine, 1% sodium pyruvate, 1% non-essential amino acids, and 180 μg/ml of G418 final concentration. Cells are incubated at 37° C., in an atmosphere of 5% CO2 and passaged twice a week to maintain sub-confluence.
Approximately 3000 viable Huh-ET cells (100 μl) are plated per well in a white opaque 96-well microtiter plate. The cell culture media used for the assay is the same as described above except that it contains no G418 and no phenol red. After an incubation period of 3-4 hours at 37° C. in a 5% CO2 incubator, compounds (100 μl) are added at various concentrations. Cells are then further incubated for 4 days at 37° C. in a 5% CO2 incubator. Thereafter, the culture media is removed and cells are lysed by the addition of 95 μL of the luciferase buffer (luciferin substrate in buffered detergent). Cell lysates are incubated at room temperature and protected from direct light for at least 10 minutes. Plates are read for luciferase counts using a luminometer (Wallac MicroBeta Trilux, Perkin Elmer™, MA, USA).
Curves are fitted to data points using nonlinear regression analysis, and IC50s are interpolated from the resulting curve using GraphPad Prism software, version 2.0 (GraphPad Software Inc., San Diego, Calif., USA).

[2] = system: sub-genomic HCV replicon of genotype 1a (cell line W11.8); assay: Activity determination using the ELISA and the sub-genomic replicon 1a cell line (NS5A protein level); format: cell-based; conditions: Hepatitis C virus
From the text: Activity Determination Using the ELISA and the Sub-Genomic Replicon 1a Cell Line
The cell line W11.8 containing the sub-genomic HCV replicon of genotype 1a is used to determine the potency of the drugs. The RNA replication in presence of different drug concentrations is indirectly measured in this cell line by the level of NS5A protein content upon drug treatment for four days. It is shown that the level of the NS5A protein correlates well with the level of HCV RNA in the replicon cell line. Cells are split twice a week in order to keep the confluence state below 85% of the culture flask surface area. The culture media used for cell passaging consists of DMEM-10% foetal bovine serum with 100 UI/mL penicillin, 100 μg/mL streptomycin, 2 mM glutamine, 1 mM sodium pyruvate, non-essential amino acids (1×) and 600 μg/mL of G418 final concentrations. Monolayer of the W11.8 cells is trypsinized and cells are counted. Cells are diluted at 50,000 cells/mL with complete DMEM without G418, then approximately 5,000 viable cells (100 μL) are plated per well in a white opaque 96-well microtiter plate. After an incubation period of 2-4 hours at 37° C. in a 5% CO2 incubator, compounds are added at various concentrations. Drugs are resuspended in DMSO at a stock concentration of 10 mM. Then, drugs are serially diluted at twice the final concentration in the same medium. One volume (100 μL) of each drug dilution is then added to each well that contains cells. A control compound is used as an internal standard for each plate assay. Sixteen wells are used as control (0% inhibition) without drug. […] Values from 100% inhibited wells were averaged and used as the background value. Cells are further incubated for four days at 37° C. in a 5% CO2 incubator. Following the incubation time of four days, the media is removed and wells are washed once with 150 μL of PBS at room temperature for five minutes. Cells are then fixed for five minutes using 150 μL per well of cold (−20° C.) fixative solution (50% methanol/50% acetone mix). Cells are then washed twice with 150 μL of PBS (phosphate buffered saline) per well, following the addition of 150 μL of blocking solution, cells are incubated for one hour at 37° C. to block non-specific sites. The blocking solution is removed and cells are washed twice with 150 μL of PBS per well and once with 150 μL of PBSTS solution (PBS/0.1% Triton X-100/0.02% SDS) per well. […] Then, substrate solution (100 μl, SuperSignal ELISA Pico Chemiluminescent Substrate, Fisher Cat. No. 37069) is added in each well and plates are incubated 60 minutes at room temperature prior to reading the luminescence (relative light units) on the Analyst HT plate reader. The percentage of inhibition at each drug concentration tested (in duplicate) is calculated.

SMILES: COC(=O)N[C@H](C(=O)N1CCC[C@H]1c1ncc(-c2ccc(-c3ccc(-c4ccc5[nH]c([C@@H]6CCCN6C(=O)[C@@H](NC(=O)OC)C(C)C)nc5c4)cc3)cc2)[nH]1)C(C)C [Compound 4, ((S)-1-{(S)-2-[5-(4′-{2-[(S)-1-((S)-2-Methoxycarbonylamino-3-methyl-butyryl)-pyrrolidin-2-yl]-3H-benzoimidazol-5-yl}-biphenyl-4-yl)-1H-imidazol-2-yl]-pyrrolidine-1-carbonyl}-2-methyl-propyl)-carbamic acid methyl ester]
- EC50 [1]: ≤ 5 nM
- IC50 [1]: 13 pM
- IC50 [2]: 140 pM

SMILES: COC(=O)N[C@H](C(=O)N1C[C@@H](C)C[C@H]1c1nc(-c2ccc(-c3ccc(-c4ccc5nc([C@@H]6C[C@H](C)CN6C(=O)[C@@H](NC(=O)OC)C(C)C)[nH]c5c4)cc3)cc2)c[nH]1)C(C)C [Compound 5, ((S)-1-{(2S,4S)-2-[5-(4′-{2-[(2S,4S)-1-((S)-2-Methoxycarbonylamino-3-methyl-butyryl)-4-methyl-pyrrolidin-2-yl]-1H-imidazol-4-yl}-biphenyl-4-yl)-1H-benzoimidazol-2-yl]-4-methyl-pyrrolidine-1-carbonyl}-2-methyl-propyl)-carbamic acid methyl ester]
- EC50 [1]: ≤ 5 nM
- IC50 [1]: 5 pM
- IC50 [2]: 4.1 pM

SMILES: COC(=O)NC(C(=O)N1[C@@H](C)CC[C@H]1c1nc2cc(-c3ccc(-c4ccc(-c5cnc([C@@H]6CC[C@H](C)N6C(=O)[C@@H](NC(=O)OC)C(C)C)[nH]5)cc4)cc3)ccc2[nH]1)C(C)C (stereo partly drawn) [Compound 13, Methyl N-[(1S)-1-[(2S,5S)-2-[4-[4-[4-[2-[(2S,5S)-1-[2-(methoxycarbonylamino)-3-methyl-butanoyl]-5-methyl-pyrrolidin-2-yl]-1H-benzimidazol-5-yl]phenyl]phenyl]-1H-imidazol-2-yl]-5-methyl-pyrrolidine-1-carbonyl]-2-methyl-propyl]carbamate]
- EC50 [1]: ≤ 5 nM
- IC50 [1]: 2.6 pM
- IC50 [2]: 36 pM

SMILES: COC(=O)N[C@H](C(=O)N1C[C@@H](C)C[C@H]1c1nc(-c2ccc(-c3ccc(-c4ccc5[nH]c([C@@H]6CC[C@H](C)N6C(=O)[C@@H](NC(=O)OC)C(C)C)nc5c4)cc3)cc2)c[nH]1)C(C)C [Compound 18]
- EC50 [1]: ≤ 5 nM
- IC50 [1]: 8.5 pM
- IC50 [2]: 8.5 pM
